Laboratory results from US11236047B2 (ASTEX THERAPEUTICS LIMITED, priority 2017, dated 2022).
Like-named read-outs stand apart in the source and are kept apart here.

How the values were obtained:
[1] = tested on: SJSA-1 cells (p53 wild-type, MDM2 amplified osteosarcoma); assay: Protocol A: SJSA-1 growth inhibition (sulphorhodamine B)
MDM2-p53 interaction = MDM2-p53 interaction (Homo sapiens (Human), UniProt Q00987); settings: for inhibition at 0.001 µM: read-out: MDM2 % inhibition @0.0010
[2] = tested on: SN40R2 cells (p53 mutated, MDM2 amplified osteosarcoma); assay: Protocol A: SN40R2 growth inhibition (sulphorhodamine B); settings: for inhibition at 50 µM: read-out: SN40R2 % inhibition at 50
SN40R2 cells = assay: Protocol B: SN40R2 CellTiter-Glo luminescent cell viability assay; settings: read-out: SN40R2 % inhibition at 10, Protocol B, SN40R2, at 10 μM
SJSA-1 cells = assay: Protocol B: SJSA-1 CellTiter-Glo luminescent cell viability assay
[3] = Repeat dose pharmacokinetics in monkeys; settings: monkey, in vivo, sc, 3 mg/kg subcutaneously 3x weekly, day 15
in vivo = settings: monkey, 10 mg/kg
[4] = read-out: SJSA-1 IC50 (μM) (Protocol A), SJSA-1, Protocol A
[5] = read-out: SN40R2 IC50 (μM) (Protocol A)
[6] = Homo sapiens, SJSA-1, read-out: SJSA-1 IC50 (μM) (Protocol A), SJSA-1, Protocol A
[7] = read-out: SJSA1 IC50, Protocol B, SJSA-1
[8] = Homo sapiens, SJSA-1, read-out: SJSA-1 IC50 (μM), Protocol A, SJSA-1

Sequence of MDM2-p53 interaction (Q00987 whole entry): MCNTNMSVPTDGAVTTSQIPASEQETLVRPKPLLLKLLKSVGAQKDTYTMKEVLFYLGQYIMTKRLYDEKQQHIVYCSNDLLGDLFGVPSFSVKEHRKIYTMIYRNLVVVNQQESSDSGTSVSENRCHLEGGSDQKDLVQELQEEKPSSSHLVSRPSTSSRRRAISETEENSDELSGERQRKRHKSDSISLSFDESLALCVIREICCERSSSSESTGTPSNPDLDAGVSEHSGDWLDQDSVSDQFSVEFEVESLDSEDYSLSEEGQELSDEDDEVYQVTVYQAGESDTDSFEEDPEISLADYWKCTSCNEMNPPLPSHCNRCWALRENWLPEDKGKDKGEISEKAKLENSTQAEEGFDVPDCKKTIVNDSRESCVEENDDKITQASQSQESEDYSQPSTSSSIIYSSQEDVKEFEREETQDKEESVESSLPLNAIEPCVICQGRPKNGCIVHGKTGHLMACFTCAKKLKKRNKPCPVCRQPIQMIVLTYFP

Structure (SMILES)	IC50 [1, 4]	inhibition at 10 µM (SN40R2 cells)	inhibition at 50 µM [2]	inhibition at 0.001 µM (MDM2-p53 interaction)	further results
CO[C@]1(c2ccc(Cl)cc2)c2ccc(C(C)(O)CN3CCNC3=O)cc2C(=O)N1Cc1ccc(Cl)cn1 (single isomer, unassigned) [Example 158]	1.2 µM				MDM2 % at stated concentration (MDM2-p53 interaction; at 0.10 μM): 57%@0.10
CC(O)(c1cc(F)c2c(c1)C(=O)N(Cc1ccc(Cl)cn1)[C@@]2(OCC1(C#N)CC1)c1ccc(Cl)cc1)C1CCN(CCO)CC1 (single isomer, unassigned) [Example 420]					IC50 [2, 5]: 17 µM; IC50 [1, 6]: 0.49 µM; MDM2 % at stated concentration (MDM2-p53 interaction): 68%@0.0010
CO[C@]1(c2ccc(Cl)cc2)c2ccc(C(C)(O)CN3CCOCC3=O)cc2C(=O)N1Cc1ccc(Cl)cn1 (single isomer, unassigned) [Example 328]	2.3 µM				MDM2 % at stated concentration (MDM2-p53 interaction; at 0.10 μM): 42%@0.10
CN1CCC(C(C)(O)c2cc(F)c3c(c2)C(=O)N(Cc2ncc(Cl)cn2)[C@@]3(OCC2(CO)CC2)c2ccc(Cl)cc2)CC1 (single isomer, unassigned) [Example 554]		11%	46%	74%	
CCC(O)(c1cc(F)c2c(c1)C(=O)N(Cc1ncc(C#N)cn1)[C@@]2(OCCO)c1ccc(Cl)cc1)[C@H]1CC[C@H](O)CC1 (stereo partly drawn) [Example 510, 2-{[(1R)-1-(4-chlorophenyl)-7-fluoro-5-{1-hydroxy-1-[trans-4-hydroxycyclohexyl]propyl}-1-(2-hydroxyethoxy)-3-oxo-2,3-dihydro-1H-isoindol-2-yl]methyl}pyrimidine-5-carbonitrile]		9%	5%	79%	
CCC(O)(c1cc(F)c2c(c1)C(=O)N(Cc1ccc(C#N)nc1)[C@@]2(O[C@H]1CCOC1)c1ccc(Cl)cc1)c1cn(C)cn1 (single isomer, unassigned) [Example 431]		5%	39%	48%	IC50 (SJSA-1 cells; [7]): 0.16 µM
Nc1ncn([C@H]2CC(OP(=O)(O)OC[C@H]3O[C@@H](n4cnc5c(=O)[nH]c(N)nc54)CC3O)[C@@H](CO)O2)c(=O)n1 (stereo partly shown) [compound 1-1]					AUC at 15 day [3]: 592 ng·h/mL; Cmax at 15 day [3]: 181 ng/mL; AUC (in vivo): 1470 ng·h/mL; Cmax (in vivo): 1130 ng/mL
CCC(O)(c1cc(F)c2c(c1)C(=O)N(Cc1ccc(C#N)cn1)[C@@]2(OC1CC(O)C1)c1ccc(Cl)cc1)[C@H]1CC[C@H](O)CC1 (stereo partly drawn) [Example 518, 6-{[(1R)-1-(4-chlorophenyl)-7-fluoro-5-{1-hydroxy-1-[trans-4-hydroxycyclohexyl]propyl}-3-oxo-1-[cis-3-hydroxycyclobutoxy]-2,3-dihydro-1H-isoindol-2-yl]methyl}pyridine-3-carbonitrile]		10%	46%	79%	IC50 (SJSA-1 cells; [7]): 0.065 µM; IC50 [1, 8]: 0.058 µM
CO[C@]1(c2ccc(Cl)cc2)c2ccc(C(C)(O)CN3CC(=O)NC3=O)cc2C(=O)N1Cc1ccc(Cl)cn1 (single isomer, unassigned) [Example 330]	7.1 µM				MDM2 % at stated concentration (MDM2-p53 interaction; at 0.30 μM): 36%@0.30
CCC(O)(c1cc(F)c2c(c1)C(=O)N(Cc1ncc(Cl)cn1)[C@@]2(OCC1(C(N)=O)CC1)c1ccc(Cl)cc1)c1cn(C)cn1 (stereo partly drawn) [Example 486, 1-({[(1R)-1-(4-chlorophenyl)-2-[(5-chloropyrimidin-2-yl)methyl]-7-fluoro-5-[1-hydroxy-1-(1-methyl-1H-imidazol-4-yl)propyl]-3-oxo-2,3-dihydro-1H-isoindol-1-yl]oxy}methyl)cyclopropane-1-carboxamide]			10%	59%	IC50 (SJSA-1 cells; [7]): 0.051 µM
CO[C@]1(c2ccc(Cl)cc2)c2c(F)cc(C(C)(O)C3CCN(C(=O)CO)CC3)cc2C(=O)N1Cc1ccc(Cl)cn1 (single isomer, unassigned) [Example 296]					IC50 (SJSA-1 cells; Homo sapiens, SJSA-1, read-out: SJSA1 IC50 (μM) (Protocol B), SJSA-1, Protocol B): 0.16 µM; IC50 [2, 5]: 32 µM; IC50 [1, 6]: 0.11 µM; MDM2 % at stated concentration (MDM2-p53 interaction): 62%@0.0010
CO[C@]1(c2ccc(Cl)cc2)c2ccc(C(C)(O)CN3CC(=O)NC3=O)cc2C(=O)N1Cc1ccc(Cl)cn1 (single isomer, unassigned) [Example 329]	3 µM				MDM2 % at stated concentration (MDM2-p53 interaction; at 0.30 μM): 61%@0.30
Nc1ncn([C@H]2C[C@H](O)[C@@H](CO)O2)c(=O)n1 [decitabine, 5-aza-2′-deoxycytidine]					AUC at 15 day [3]: 99 ng·h/mL; Cmax at 15 day [3]: 28 ng/mL; AUC (in vivo): 340 ng·h/mL; Cmax (in vivo): 160 ng/mL
CO[C@]1(c2ccc(Cl)cc2)c2ccc(C(C)(O)CN3CCNC3=O)cc2C(=O)N1Cc1ccc(Cl)cn1 (single isomer, unassigned) [Example 157]	6.4 µM				MDM2 % at stated concentration (MDM2-p53 interaction; at 0.30 μM): 39%@0.30
CCC(O)(c1cc(F)c2c(c1)C(=O)N(Cc1ccc(C#N)cn1)[C@@]2(OCCOC)c1ccc(Cl)cc1)c1cn(C)cn1 (single isomer, unassigned) [Example 430]		4%	33%	59%	
CCC(O)(c1cc(F)c2c(c1)C(=O)N(Cc1ncc(C#N)cn1)[C@@]2(OCC1(C#N)CC1)c1ccc(Cl)cc1)c1cn(C)cn1 (single isomer, unassigned) [Example 462]		4%	37%	80%	
CC[C@@](O)(c1cc(F)c2c(c1)C(=O)N(Cc1ncc(C#N)cn1)[C@@]2(O[C@H]1CCOC1)c1ccc(Cl)cc1)C1CCN(C)CC1 [Example 557, 2-{[(1R)-1-(4-chlorophenyl)-7-fluoro-5-[(1S)-1-hydroxy-1-(1-methylpiperidin-4-yl)propyl]-3-oxo-1-[(3S)-oxolan-3-yloxy]-2,3-dihydro-1H-isoindol-2-yl]methyl}pyrimidine-5-carbonitrile]		6%		81%	inhibition at 10 µM ([2]; read-out: SN40R2 % inhibition at 10): 37%
CO[C@]1(c2ccc(Cl)cc2)c2ccc(C(C)(O)CN3CCOCC3=O)cc2C(=O)N1Cc1ccc(Cl)cn1 (single isomer, unassigned) [Example 327]	9.3 µM				MDM2 % at stated concentration (MDM2-p53 interaction; at 0.30 μM): 42%@0.30
Cn1cc(C(O)(c2cc(F)c3c(c2)C(=O)N(Cc2ccc(C#N)cn2)[C@@]3(O[C@H]2CCOC2)c2ccc(Cl)cc2)C(F)(F)F)cn1 (stereo partly drawn) [Example 428, 6-{[(1R)-1-(4-chlorophenyl)-7-fluoro-3-oxo-1-[(3S)-oxolan-3-yloxy]-5-[2,2,2-trifluoro-1-hydroxy-1-(1-methyl-1H-pyrazol-4-yl)ethyl]-2,3-dihydro-1H-isoindol-2-yl]methyl}pyridine-3-carbonitrile]				65%	IC50 (SJSA-1 cells; [7]): 0.19 µM; IC50 ([2]; read-out: SN40R2 IC50 (μM)): 22 µM; IC50 [1, 8]: 0.11 µM
